Test results from patent US10613104B2, “Assay to determine anticoagulants in blood or blood plasma” (ZAFENA AB, priority 2014, dated 2020).

Tested on: prothrombin time (PT) of normal plasma NKP
Test: Three wet-chemistry Owren PT methods (Simple Simon PT; 20, 10, 5 μL sample in 200 μL reagent) on normal plasma NKP with added anticoagulant
Assay type: biochemical
Description: Experimental work was performed with the commercially available ambient room temperature coagulation instrument, Simple Simon P T Zafena A B, Linköping, Sweden, with functions described in EP 1 636 595 B2. One instrument or reader was used for each PT-method. Alternatively, the same instrument could be used for all PT-methods.
The three instruments were used together standing next to one another on a laboratory bench in thermal equilibrium with the ambient room temperature of the laboratory.
The ambient room temperature in the laboratory where the work was done varied between 21° C. and 26° C.
The PT-reagent was the one delivered together with lot N223M of the Simple Simon PT product, a reagent of Owren-type that thus contains effective amounts of thromboplastin, fibrinogen and FV (the thromboplastin of rabbit brain origin and the fibrinogen and the FV of bovine blood plasma origin). Other Owren type reagents could also be used.
The reagent was in portions of 200 μL to which sample, citrated blood or citrated blood plasma, was added and mixed. The addition was by an end-to-end plastic capillary mounted at one end of a tubular body with a displacement mechanism in the other end, this to allow convenient mixing of sample and reagent. Such Mixxocaps with 10 μL capillaries are supplied with the Simple Simon PT product. To perform the experiments described, some Mixxocaps were fitted with 20 μL capillaries, or 5 μL capillaries instead of the 10 μL capillaries with which they were supplied by the manufacturer.
The ratios between the volume of blood or blood plasma to the volume of liquid reagent used in the experiments were 1:11, 1:21 and 1:41. Other ratios lying within the range of 1:5 and 1:100 or within the range of 1:2 and 1:200 could be used.
Anticoagulated normal plasma was the NKP product GHI-163 lot 10188, MediRox AB, Nyköping, Sweden.
It was further relevant that all three PT-methods were calibrated, according to the invention, to show INR 1.000 for unadulterated NKP, and INR 1.357 for the NKP 1:2. All primary INR values, the results that appeared on the instrument screens (one instrument or reader was used for each PT-method), were therefore transformed to the corrected/calibrated INRc by the formula A*INRexp(B) where a and b were selected to given NKP and NKP 1:2 their desired values, 1.000 and 1.357, respectively. The INR-value of the NKP 1:2 was calculated by the formula of Lindahl et al for the INR of corresponding to PT-activity of 50% (half of the 100% that equates to INR 1.000). Above the INR calibrated columns (INRc) there is an upper number and a lower number, these are the above mentioned A and B, respectively.
As deemed relevant the upper number is selected to make NKP 1:2 to show INRc 1.357.
Clinical levels of interest range from 50 to 1000 μg/L in blood plasma.
In the selected calibration INR 1.000 and INR 1.357 were assigned to NKP and NKP 1:2, respectively, which was the same relevant calibration as selected in Examples 1 and 3 above.

[1] = dabigatran 52 μg/L in NKP plasma
[2] = dabigatran 157 μg/L in NKP plasma
[3] = dabigatran 236 μg/L in NKP plasma
[4] = dabigatran 355 μg/L in NKP plasma
[5] = dabigatran 533 μg/L in NKP plasma
[6] = dabigatran 800 μg/L in NKP plasma
[7] = dabigatran 1000 μg/L in NKP plasma

dabigatran
INR 10 μL sample [1]: 1.09 | INR 20 μL sample [1]: 1.16 | INRc 5 μL sample [1]: 1.01 | INRc 10 μL sample [1]: 1.03 | INRc 20 μL sample [1]: 1.16 | INRo [1]: 0.98 | ΔINRc 10 μL − 5 μL [1]: 0.03 | ΔINRc 20 μL − 5 μL [1]: 0.15 | INR 10 μL sample [2]: 1.19 | INR 20 μL sample [2]: 1.31 | INRc 5 μL sample [2]: 1.08 | INRc 10 μL sample [2]: 1.14 | INRc 20 μL sample [2]: 1.36 | INRo [2]: 1.02 | ΔINRc 10 μL − 5 μL [2]: 0.05 | ΔINRc 20 μL − 5 μL [2]: 0.28 | INR 5 μL sample [3]: 1.17 | INR 10 μL sample [3]: 1.30 | INR 20 μL sample [3]: 1.53 | INRc 5 μL sample [3]: 1.12 | INRc 10 μL sample [3]: 1.26 | INRc 20 μL sample [3]: 1.67 | INRo [3]: 0.98 | ΔINRc 10 μL − 5 μL [3]: 0.14 | ΔINRc 20 μL − 5 μL [3]: 0.55 | INR 5 μL sample [4]: 1.28 | INR 10 μL sample [4]: 1.44 | INR 20 μL sample [4]: 1.82 | INRc 5 μL sample [4]: 1.22 | INRc 10 μL sample [4]: 1.41 | INRc 20 μL sample [4]: 2.09 | INRo [4]: 1.03 | ΔINRc 10 μL − 5 μL [4]: 0.19 | ΔINRc 20 μL − 5 μL [4]: 0.87 | INR 5 μL sample [5]: 1.44 | INR 10 μL sample [5]: 1.70 | INR 20 μL sample [5]: 2.38 | INRc 5 μL sample [5]: 1.37 | INRc 10 μL sample [5]: 1.70 | INRc 20 μL sample [5]: 2.98 | ΔINRc 10 μL − 5 μL [5]: 0.33 | ΔINRc 20 μL − 5 μL [5]: 1.61 | INR 5 μL sample [6]: 1.81 | INR 10 μL sample [6]: 2.50 | INR 20 μL sample [6]: 4.22 | INRc 5 μL sample [6]: 1.72 | INRc 10 μL sample [6]: 2.62 | INRc 20 μL sample [6]: 6.36 | INRo [6]: 0.81 | ΔINRc 10 μL − 5 μL [6]: 0.91 | ΔINRc 20 μL − 5 μL [6]: 4.64 | INR 5 μL sample [7]: 2.53 | INR 10 μL sample [7]: 3.55 | INR 20 μL sample [7]: 7.03 | INRc 5 μL sample [7]: 2.39 | INRc 10 μL sample [7]: 3.89 | INRc 20 μL sample [7]: 12.47 | INRo [7]: 0.88 | ΔINRc 10 μL − 5 μL [7]: 1.51 | ΔINRc 20 μL − 5 μL [7]: 10.08 | content at which the INRc-difference (20 μL minus 5 μL) reaches 0.5 (normal plasma NKP, linear part of the graph (FIG. 8, FIG. 2)): about 200 μg/L
